Laboratory results as given in ChEMBL document CHEMBL1141925, “Carbonic anhydrase inhibitors. Inhibition of the cytosolic and tumor-associated carbonic anhydrase isozymes I, II, and IX with a series of 1,3,4-thiadiazole- and 1,2,4-triazole-thiols” (Bioorg Med Chem Lett, 2005).

Legend:
Carbonic anhydrase 9 = Carbonic anhydrase 9 (Homo sapiens, UniProt Q16790); assay: Inhibitory constant against human Carbonic anhydrase IX
Carbonic anhydrase 2 = Carbonic anhydrase 2 (Homo sapiens, UniProt P00918)
Description: Inhibitory constant against human Carbonic anhydrase II

Carbonic anhydrase 1 = Carbonic anhydrase 1 (Homo sapiens, UniProt P00915)
Chain of Carbonic anhydrase 1 (P00915 whole entry): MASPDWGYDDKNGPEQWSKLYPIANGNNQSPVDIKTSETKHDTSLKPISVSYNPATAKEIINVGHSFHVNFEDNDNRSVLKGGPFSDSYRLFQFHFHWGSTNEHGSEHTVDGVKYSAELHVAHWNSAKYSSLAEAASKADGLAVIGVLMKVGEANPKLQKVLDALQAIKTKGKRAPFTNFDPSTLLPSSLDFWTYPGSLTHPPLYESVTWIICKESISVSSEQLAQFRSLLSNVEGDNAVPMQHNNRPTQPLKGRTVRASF

SMILES | Ki (Carbonic anhydrase 9) | Ki (Carbonic anhydrase 2) | Ki (Carbonic anhydrase 1)
Nc1nnc(S)s1 | 9.3 µM | – | –
CCCn1c(-c2ccc(S(=O)(=O)c3ccc(Cl)cc3)cc2)n[nH]c1=S | 9.8 µM | 618 µM | 548 µM
CCCn1c(-c2ccc(S(=O)(=O)c3ccc(Br)cc3)cc2)n[nH]c1=S | 772 µM | 382 µM | 508 µM
O=C(Nc1ccc(Cl)c(Cl)c1)Nc1nnc(S)s1 | 271 µM | – | –
O=C(Nc1nnc(S)s1)NS(=O)(=O)Nc1nnc(S)s1 | 322 µM | – | –
CCCCn1c(-c2ccc(S(=O)(=O)c3ccc(Br)cc3)cc2)n[nH]c1=S | 11.5 µM | – | –
O=C(Nc1nnc(S)s1)c1c(F)c(F)c(F)c(F)c1F | 312 µM | 129 µM | 308 µM
O=[N+]([O-])c1ccccc1S(=O)(=O)Nc1n[nH]c(=S)s1 | 315 µM | 230 µM | 303 µM
CCCn1c(S)nnc1-c1ccc(S(=O)(=O)c2ccccc2)cc1 | 119 µM | 276 µM | 290 µM
Cc1ccc(-n2c(-c3ccc(S(=O)(=O)c4ccc(Br)cc4)cc3)n[nH]c2=S)cc1 | 60.4 µM | 251 µM | 249 µM
O=C(Nc1nnc(S)s1)c1ccccn1 | 306 µM | – | –
O=C(O)c1cccnc1C(=O)Nc1nnc(S)s1 | 242 µM | – | –
O=C(Nc1nnc(S)s1)N(c1ccccc1)c1ccccc1 | 271 µM | – | –
CCCCn1c(S)nnc1-c1ccc(S(=O)(=O)c2ccccc2)cc1 | – | 604 µM | 415 µM
CC(=O)Nc1nnc(S)s1 | 9.5 µM | 8.8 µM | 4.5 µM
O=[N+]([O-])c1ccc(SNc2n[nH]c(=S)s2)cc1 | 256 µM | – | –
Cc1cccc(-n2c(-c3ccc(S(=O)(=O)c4ccc(Br)cc4)cc3)n[nH]c2=S)c1 | 320 µM | 301 µM | 254 µM
CCCCn1c(-c2ccc(S(=O)(=O)c3ccc(Cl)cc3)cc2)n[nH]c1=S | 96.8 µM | 227 µM | 273 µM
CN(C)c1cccc2c(S(=O)(=O)Nc3nnc(S)s3)cccc12 | 296 µM | – | –
